What was measured:
[1] = tested on: human peripheral blood mononuclear cell (PBMC); experiment: antigen recall assay (IFNγ secretion by CMV-stimulated PBMC, ELISA); type: cell-based; conditions: co-treatment: 1 µM HSD11B1 inhibitor + 1 µg/ml anti PD-1 (G4K), compared to anti-PD-1 or HSD11B1 inhibitor alone, 1 µg/ml CMV antigen, 50 ng/ml cortisone, 6 days, Fig. 1
Excerpt: Response to immunotherapy rely on critical biological steps including antigen presentation and T cell activation. Therefore, the therapeutic potential of combining immunotherapy with HSD11B1 inhibition was investigated in an antigen recall assay as described below. Antigen recall assay is the gold standard in vitro method to assess the bioactivity of immune checkpoint inhibitors because it measures at the same time the potential of antigen presenting cells to activate T cell and the actual T cell activation, taking into account thereby the two critical mechanisms required for an optimal response to immunotherapy. The level of IFNγ secreted in this human immune cell-based assay is considered as a good indicator of the T cells activation to immunomodulatory molecules. Cryopreserved human peripheral blood mononuclear cell (PBMC) isolated from cytomegalovirus (CMV) positive heathy donors were thawed in a 37°C water bath and seeded in round bottom 96 well plates at 2 X 10^5 cells/well in 150 µL final volume of RPMI media supplemented with 10% fetal bovin serum, 1% non-essential amino acids, 0.01M Hepes, 1% Penicilin/Streptomycin, 1% L-glutamine and 50 ng/ml cortisone). […] Plates were incubated at 37°C, 6% CO2. After 6 days, supernatants were assayed for IFNγ by ELISA (Biolegend).

[2] = tested on: GFP-expressing Renca cells; experiment: murine T cell-mediated tumor cell-killing assay (growth of GFP Renca cells, Incucyte imaging); type: cell-based; conditions: combination: 10 µM HSD11B1 inhibitor + anti-PD-1 (mouse), compared to single treatments; 200 ng/ml 11-DHC; BMDCs, OT-I CD8 T cells, SIINFEKL loaded GFP Renca cells; Fig. 2
Experimental: Another critical biological mechanism required for an optimal response to immunotherapy of cancer is the capacity of T cells to kill the tumor target cells. The therapeutic potential of combining immunotherapy with HSD11B1 inhibition for the treatment of cancer was therefore assessed in a murine T cell-mediated tumor cell-killing assay. Wild type C57BL/6J murine bone marrow progenitors cells were maintained with 20 ng/ml GMCSF (Peprotech) to induce differentiation into bone marrow derived dendritic cells (BMDCs) for 6 days. At day 6, 2 X 10^4 BMDCs/well together with 2 X 10^3 Renca tumor cells/well were seeded in flat bottom 96 well plate in RPMI 1640 supplemented with 10% FBS, 1% Penicillin/streptomycin, 1% L-glutamine, […] betamercaptoethanol and 0.5% of sodium pyruvate, 32 ng/ml R848 (Invivogen) and 25 µg/ml ovalbumin (Invivogen). After 24 hours, cell supernatant was removed and 1x10^5 OT-I CD8 T cells/well were added in very low endotoxin RPMI 1640 medium supplemented with 10% fetal bovine serum, 1% L-glutamine, 1% penicillin-streptomycin, 1% sodium-pyruvate, 1% glutamine, 1%, non-essential amino acids and […] beta-mercaptoethanol. After 24 hours, 5x10^3 H2kb-recombined; SEQ ID NO: 1 […] (Invivogen) loaded-GFP-expressing Renca cells/well were added. The growth of GFP Renca cells was measured and quantified in real time by cell imaging using the Incucyte technology. […]

SMILES | level on IFNγ [1] | growth of tumor cells [2]
O=C(O)CC1CC2(CCN(C(=O)NC3C4CC5CC(C4)CC3C5)CC2)c2c(Br)cccc21 (racemic) [10J, (+/-)-2-(7-bromo-1'-((2-adamantyl)carbamoyl)-2,3-dihydrospiro [indene-1,4'-piperidine]-3-yl) acetic acid] | significantly increased | –
CC(C)(O)c1cccn2c(C3(c4ccc(Cl)cc4)CC3)nnc12 [BMS-823778, 2-[3-[1-(4-chlorophenyl)cyclopropyl]-[1,2,4]triazolo[4,3-a]pyridin-8-yl]propan-2-ol] | significantly increased | inhibited the growth of tumor cells more efficiently than the single treatments
CC1(C)[C@@H](OC(=O)CCC(=O)O)CC[C@]2(C)[C@H]3C(=O)C=C4[C@@H]5C[C@@](C)(C(=O)O)CC[C@]5(C)CC[C@@]4(C)[C@]3(C)CC[C@@H]12 [carbenoxolone, (2S,4aS,6aR,6aS,6bR,8aR,10S,12aS,14bR )-10-(3-carboxypropanoyloxy)-2,4a,6a,6b,9,9,12a-heptamethyl-13-oxo-3,4,5,6,6a,7,8,8a,10,11,12,14b-dodecahydro-1H-picene-2-carboxylic acid] | significantly increased | –

— patent EP3878446A1, “HSD11B1 INHIBITORS FOR USE IN IMMUNOTHERAPY AND USES THEREOF” (UNIVERSITE DE GENEVE, priority 2020, dated 2021)
